Results reported in patent publication US10844077B2, “Thiazolyl-containing compounds for treating proliferative diseases” (Dana-Farber Cancer Institute, Inc., priority 2014, dated 2020).
Like-named read-outs stand apart in the source and are kept apart here.

Columns and labels:
broad panel of kinases [1] = target: broad panel of kinases (Homo sapiens, UniProt P54762); format: binding; details: EPHB1; 1 μM
broad panel of kinases [2] = target: broad panel of kinases (Homo sapiens, UniProt P10721, T670I/V559D); format: binding; details: KIT(V559D, T670I); 1 μM
Chain of broad panel of kinases (Homo sapiens, UniProt P10721, T670I/V559D) (P10721 26-976 V559D/T670I limits assumed): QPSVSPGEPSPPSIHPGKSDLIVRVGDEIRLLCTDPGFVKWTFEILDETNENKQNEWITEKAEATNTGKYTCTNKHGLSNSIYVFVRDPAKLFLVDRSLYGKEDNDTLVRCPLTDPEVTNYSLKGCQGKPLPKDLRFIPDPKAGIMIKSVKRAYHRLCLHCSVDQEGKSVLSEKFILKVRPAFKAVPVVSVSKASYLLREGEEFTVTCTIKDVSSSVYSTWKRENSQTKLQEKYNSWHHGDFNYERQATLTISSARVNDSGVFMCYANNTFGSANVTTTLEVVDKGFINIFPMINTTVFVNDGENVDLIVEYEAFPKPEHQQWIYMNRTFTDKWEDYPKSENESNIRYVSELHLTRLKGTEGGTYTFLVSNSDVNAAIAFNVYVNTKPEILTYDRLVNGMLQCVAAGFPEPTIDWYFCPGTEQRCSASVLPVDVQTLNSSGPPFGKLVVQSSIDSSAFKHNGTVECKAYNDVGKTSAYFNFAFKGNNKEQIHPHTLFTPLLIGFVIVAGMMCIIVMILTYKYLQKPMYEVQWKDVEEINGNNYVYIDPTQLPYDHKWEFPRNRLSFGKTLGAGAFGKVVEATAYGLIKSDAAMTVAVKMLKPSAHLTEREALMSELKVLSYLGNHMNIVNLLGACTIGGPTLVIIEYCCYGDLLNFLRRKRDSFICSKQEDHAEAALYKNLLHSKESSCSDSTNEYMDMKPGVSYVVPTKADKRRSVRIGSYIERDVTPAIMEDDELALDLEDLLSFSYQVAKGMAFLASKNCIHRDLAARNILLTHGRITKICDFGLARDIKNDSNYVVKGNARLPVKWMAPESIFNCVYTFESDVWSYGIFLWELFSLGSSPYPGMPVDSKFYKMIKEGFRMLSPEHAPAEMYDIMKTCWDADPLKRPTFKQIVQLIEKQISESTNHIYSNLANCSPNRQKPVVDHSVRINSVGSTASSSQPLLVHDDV

broad panel of kinases [3] = target: broad panel of kinases (Homo sapiens, UniProt Q9H093); format: binding; details: SNARK; 1 μM
broad panel of kinases [4] = target: broad panel of kinases (Homo sapiens, UniProt P43405); format: binding; details: SYK; 1 μM
broad panel of kinases [5] = target: broad panel of kinases (Homo sapiens, UniProt P36888, R834Q); format: binding; details: FLT3(R834Q); 1 μM
broad panel of kinases [6] = target: broad panel of kinases (Homo sapiens, UniProt P42336, Q546K); format: binding; details: PIK3CA(Q546K); 1 μM
broad panel of kinases [7] = target: broad panel of kinases (Homo sapiens, UniProt P22607); format: binding; details: FGFR3; 1 μM
Chain of broad panel of kinases (Homo sapiens, UniProt P22607) (P22607 23-806 limits assumed): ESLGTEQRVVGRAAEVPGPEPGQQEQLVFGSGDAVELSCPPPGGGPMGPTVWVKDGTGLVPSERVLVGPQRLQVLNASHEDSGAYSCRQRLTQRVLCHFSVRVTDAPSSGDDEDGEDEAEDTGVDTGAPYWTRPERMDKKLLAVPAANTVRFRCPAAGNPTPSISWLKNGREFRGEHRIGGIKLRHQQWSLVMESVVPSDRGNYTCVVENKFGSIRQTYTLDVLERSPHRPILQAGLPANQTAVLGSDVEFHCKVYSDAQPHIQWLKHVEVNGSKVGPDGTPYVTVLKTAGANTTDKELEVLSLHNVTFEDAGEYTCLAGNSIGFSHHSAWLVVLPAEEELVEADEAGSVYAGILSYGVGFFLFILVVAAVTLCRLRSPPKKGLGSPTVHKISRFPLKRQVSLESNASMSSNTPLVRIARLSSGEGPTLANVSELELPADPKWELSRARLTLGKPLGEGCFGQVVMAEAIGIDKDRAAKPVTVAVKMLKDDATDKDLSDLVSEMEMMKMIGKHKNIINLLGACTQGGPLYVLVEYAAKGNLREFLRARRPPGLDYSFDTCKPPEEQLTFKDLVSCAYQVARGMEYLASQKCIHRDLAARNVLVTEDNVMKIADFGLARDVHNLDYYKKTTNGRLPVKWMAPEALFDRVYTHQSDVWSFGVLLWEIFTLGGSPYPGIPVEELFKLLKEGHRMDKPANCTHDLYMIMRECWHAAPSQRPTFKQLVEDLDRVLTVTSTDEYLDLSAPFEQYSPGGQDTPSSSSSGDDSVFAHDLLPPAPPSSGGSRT

broad panel of kinases [8] = target: broad panel of kinases (Homo sapiens, UniProt Q12852); format: binding; details: DLK; 1 μM
broad panel of kinases [9] = target: broad panel of kinases (Homo sapiens, UniProt P00519); format: binding; details: 1 μM
broad panel of kinases [10] = target: broad panel of kinases (Homo sapiens, UniProt Q14289); format: binding; details: PYK2; 1 μM
broad panel of kinases [11] = target: broad panel of kinases (Homo sapiens, UniProt Q15139); format: binding; details: PRKD1; 1 μM
broad panel of kinases [12] = target: broad panel of kinases (Homo sapiens, UniProt P23443); format: binding; details: S6K1; 1 μM
broad panel of kinases [13] = target: broad panel of kinases (Homo sapiens, UniProt P45985); format: binding; details: MEK4; 1 μM
Chain of broad panel of kinases (Homo sapiens, UniProt P45985) (P45985 2-399 limits assumed): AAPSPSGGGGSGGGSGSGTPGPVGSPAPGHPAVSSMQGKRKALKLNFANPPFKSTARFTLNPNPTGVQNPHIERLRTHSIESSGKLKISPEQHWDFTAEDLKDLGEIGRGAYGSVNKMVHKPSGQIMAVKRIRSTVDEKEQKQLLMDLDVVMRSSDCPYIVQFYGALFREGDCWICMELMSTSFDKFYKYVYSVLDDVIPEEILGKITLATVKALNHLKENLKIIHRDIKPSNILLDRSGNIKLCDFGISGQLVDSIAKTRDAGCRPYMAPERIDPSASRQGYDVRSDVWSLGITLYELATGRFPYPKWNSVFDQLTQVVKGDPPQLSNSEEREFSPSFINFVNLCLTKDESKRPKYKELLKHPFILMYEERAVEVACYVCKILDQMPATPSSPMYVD

broad panel of kinases [14] = target: broad panel of kinases (Homo sapiens, UniProt Q16566); format: binding; details: CAMK4; 1 μM
broad panel of kinases [15] = target: broad panel of kinases (Homo sapiens, UniProt P51812); format: binding; details: 1 μM
broad panel of kinases [16] = target: broad panel of kinases (Homo sapiens, UniProt P42336, H1047L); format: binding; details: PIK3CA(H1047L); 1 μM
broad panel of kinases [17] = target: broad panel of kinases (Homo sapiens, UniProt Q8IVW4); format: binding; details: CDKL3; 1 μM
broad panel of kinases [18] = target: broad panel of kinases (Homo sapiens, UniProt Q13177); format: binding; details: PAK2; 1 μM
broad panel of kinases [19] = target: broad panel of kinases (Homo sapiens, UniProt Q8NG66); format: binding; details: NEK11; 1 μM
broad panel of kinases [20] = target: broad panel of kinases (Homo sapiens, UniProt P10721, A829P); format: binding; details: KIT(A829P); 1 μM
Chain of broad panel of kinases (Homo sapiens, UniProt P10721, A829P) (P10721 26-976 A829P limits assumed): as the sequence (P10721 26-976 V559D/T670I limits assumed) above, with D534V, I645T, A804P counted along it

broad panel of kinases [21] = target: broad panel of kinases (Homo sapiens, UniProt O43283); format: binding; details: LZK; 1 μM
broad panel of kinases [22] = target: broad panel of kinases (Homo sapiens, UniProt P42336, I800L); format: binding; details: PIK3CA(I800L); 1 μM
broad panel of kinases [23] = target: broad panel of kinases (Homo sapiens, UniProt Q96RR4); format: binding; details: CAMKK2; 1 μM
Chain of broad panel of kinases (Homo sapiens, UniProt Q96RR4) (Q96RR4 2-588 limits assumed): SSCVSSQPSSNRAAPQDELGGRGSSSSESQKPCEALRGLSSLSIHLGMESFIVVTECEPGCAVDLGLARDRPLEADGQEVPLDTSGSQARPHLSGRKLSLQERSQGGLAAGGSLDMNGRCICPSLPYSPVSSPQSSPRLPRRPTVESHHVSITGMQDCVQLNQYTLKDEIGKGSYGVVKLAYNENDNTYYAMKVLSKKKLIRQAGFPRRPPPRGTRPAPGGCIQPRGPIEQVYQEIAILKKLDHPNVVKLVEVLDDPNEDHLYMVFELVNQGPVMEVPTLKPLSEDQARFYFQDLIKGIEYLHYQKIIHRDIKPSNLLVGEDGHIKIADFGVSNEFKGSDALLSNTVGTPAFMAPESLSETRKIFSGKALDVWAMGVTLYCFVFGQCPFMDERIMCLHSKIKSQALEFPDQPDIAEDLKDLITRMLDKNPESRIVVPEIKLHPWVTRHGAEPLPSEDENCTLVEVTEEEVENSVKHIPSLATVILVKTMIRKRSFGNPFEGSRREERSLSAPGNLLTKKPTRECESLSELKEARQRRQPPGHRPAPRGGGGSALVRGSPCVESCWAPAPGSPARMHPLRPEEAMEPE

broad panel of kinases [24] = target: broad panel of kinases (Homo sapiens, UniProt P14616); format: binding; details: INSRR; 1 μM
broad panel of kinases [25] = target: broad panel of kinases (Homo sapiens, UniProt P04629); format: binding; details: TRKA; 1 μM
kinases in BCWM.1 cells [26] = target: kinases in BCWM.1 cells (Homo sapiens, UniProt Q9Y2I7); format: cell-based; details: PIP5K3; ATP; 1 μM, 90 min; GF
Chain of kinases in BCWM.1 cells (Homo sapiens, UniProt Q9Y2I7) (Q9Y2I7 2-2098 limits assumed): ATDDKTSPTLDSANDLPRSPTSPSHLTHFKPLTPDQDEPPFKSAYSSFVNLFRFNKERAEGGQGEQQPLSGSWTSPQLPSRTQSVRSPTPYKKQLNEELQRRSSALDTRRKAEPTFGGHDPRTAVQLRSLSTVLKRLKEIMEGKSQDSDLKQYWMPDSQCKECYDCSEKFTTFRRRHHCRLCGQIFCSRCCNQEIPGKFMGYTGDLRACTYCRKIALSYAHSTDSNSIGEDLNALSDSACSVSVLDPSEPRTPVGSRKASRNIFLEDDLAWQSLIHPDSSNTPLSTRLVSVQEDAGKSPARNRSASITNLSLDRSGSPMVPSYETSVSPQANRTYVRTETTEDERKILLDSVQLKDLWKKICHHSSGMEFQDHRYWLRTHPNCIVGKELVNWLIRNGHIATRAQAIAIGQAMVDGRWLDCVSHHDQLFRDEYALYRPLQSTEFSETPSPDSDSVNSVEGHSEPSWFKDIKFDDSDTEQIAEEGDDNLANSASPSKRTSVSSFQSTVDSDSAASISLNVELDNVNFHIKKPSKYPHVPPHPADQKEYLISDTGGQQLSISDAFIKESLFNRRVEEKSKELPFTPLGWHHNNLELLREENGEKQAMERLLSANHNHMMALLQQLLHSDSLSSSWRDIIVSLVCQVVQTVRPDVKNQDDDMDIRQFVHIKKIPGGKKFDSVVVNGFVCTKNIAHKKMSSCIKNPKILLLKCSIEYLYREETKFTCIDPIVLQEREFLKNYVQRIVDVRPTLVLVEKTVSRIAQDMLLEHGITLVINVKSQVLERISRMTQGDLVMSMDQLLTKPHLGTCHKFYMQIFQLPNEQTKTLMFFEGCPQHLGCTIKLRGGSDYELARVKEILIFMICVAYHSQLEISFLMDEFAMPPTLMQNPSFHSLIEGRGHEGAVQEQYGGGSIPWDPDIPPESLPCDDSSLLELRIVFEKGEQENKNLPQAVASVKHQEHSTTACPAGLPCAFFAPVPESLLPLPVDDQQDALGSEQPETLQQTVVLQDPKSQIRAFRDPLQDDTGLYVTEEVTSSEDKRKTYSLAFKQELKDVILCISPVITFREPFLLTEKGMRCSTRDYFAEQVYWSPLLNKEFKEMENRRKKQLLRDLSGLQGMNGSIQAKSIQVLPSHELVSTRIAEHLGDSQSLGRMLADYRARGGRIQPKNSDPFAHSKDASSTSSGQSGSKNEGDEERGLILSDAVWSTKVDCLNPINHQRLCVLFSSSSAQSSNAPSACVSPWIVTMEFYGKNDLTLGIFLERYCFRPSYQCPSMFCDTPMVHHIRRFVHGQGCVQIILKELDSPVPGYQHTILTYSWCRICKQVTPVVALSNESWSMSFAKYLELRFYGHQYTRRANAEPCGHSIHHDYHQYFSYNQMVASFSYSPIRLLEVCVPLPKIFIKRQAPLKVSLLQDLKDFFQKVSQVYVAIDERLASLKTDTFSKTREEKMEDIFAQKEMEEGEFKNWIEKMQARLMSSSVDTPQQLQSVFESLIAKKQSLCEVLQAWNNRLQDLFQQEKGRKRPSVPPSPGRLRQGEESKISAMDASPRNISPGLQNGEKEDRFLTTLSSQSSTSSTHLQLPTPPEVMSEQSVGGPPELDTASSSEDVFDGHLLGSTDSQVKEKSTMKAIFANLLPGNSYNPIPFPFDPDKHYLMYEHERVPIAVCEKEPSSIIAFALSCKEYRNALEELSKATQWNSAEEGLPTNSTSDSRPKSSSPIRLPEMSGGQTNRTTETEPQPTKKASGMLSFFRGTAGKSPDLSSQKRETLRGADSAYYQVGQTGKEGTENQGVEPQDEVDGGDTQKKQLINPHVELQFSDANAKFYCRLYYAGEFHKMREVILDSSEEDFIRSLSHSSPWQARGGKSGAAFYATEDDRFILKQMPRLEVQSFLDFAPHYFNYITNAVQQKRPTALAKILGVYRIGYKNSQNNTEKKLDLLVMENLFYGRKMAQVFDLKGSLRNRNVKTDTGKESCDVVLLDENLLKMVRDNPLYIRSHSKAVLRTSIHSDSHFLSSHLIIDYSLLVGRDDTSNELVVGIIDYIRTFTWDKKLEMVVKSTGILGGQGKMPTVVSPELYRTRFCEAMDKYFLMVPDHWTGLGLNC
Experimental: (§1) The cells were harvested and lysed. […] Bound kinases were identified and quantitated by ACTIVX as described in Patricelli et al., Biochemistry, 2007, 46(2): 350-358. The compounds were tested in duplicates against duplicate or quadruplicate control samples.

kinases in BCWM.1 cells [27] = target: kinases in BCWM.1 cells (Homo sapiens, UniProt Q96S38); format: cell-based; details: RSKL1; ATP; 1 μM, 90 min; GF
Experimental: as §1

kinases in BCWM.1 cells [28] = target: kinases in BCWM.1 cells (Homo sapiens, UniProt P21127); format: cell-based; details: PITSLRE; Lys2; 1 μM, 90 min; GF
Experimental: as §1

kinases in BCWM.1 cells [29] = target: kinases in BCWM.1 cells (Homo sapiens, UniProt Q9NZJ5); format: cell-based; details: PEK; Lys2; 1 μM, 90 min; GF
Experimental: as §1

kinases in BCWM.1 cells [30] = target: kinases in BCWM.1 cells (Homo sapiens, UniProt Q8TD19); format: cell-based; details: NEK9; Lys2; 1 μM, 90 min; GF
Experimental: as §1

kinases in BCWM.1 cells [31] = target: kinases in BCWM.1 cells (Homo sapiens, UniProt Q96SB4); format: cell-based; details: SRPK1; Lys2; 1 μM, 90 min; GF
Experimental: as §1

kinases in BCWM.1 cells [32] = target: kinases in BCWM.1 cells (Homo sapiens, UniProt Q9BYT3); format: cell-based; details: STK33; Lys2; 1 μM, 90 min; GF
Experimental: as §1

kinases in BCWM.1 cells [33] = target: kinases in BCWM.1 cells (Homo sapiens, UniProt P48736); format: cell-based; details: PIK3CG; ATP; 1 μM, 90 min; GF
Experimental: as §1

| SMILES | percent of control binding remaining (lower = stronger binding) (broad panel of kinases [1]) [%] | percent of control binding remaining (lower = stronger binding) (broad panel of kinases [2]) [%] | percent of control binding remaining (lower = stronger binding) (broad panel of kinases [3]) [%] | percent of control binding remaining (lower = stronger binding) (broad panel of kinases [4]) [%] | percent of control binding remaining (lower = stronger binding) (broad panel of kinases [5]) [%] | percent of control binding remaining (lower = stronger binding) (broad panel of kinases [6]) [%] | percent of control binding remaining (lower = stronger binding) (broad panel of kinases [8]) [%] | percent of control binding remaining (lower = stronger binding) (broad panel of kinases [10]) [%] | percent of control binding remaining (lower = stronger binding) (broad panel of kinases [11]) [%] | percent of control binding remaining (lower = stronger binding) (broad panel of kinases [12]) [%] | percent of control binding remaining (lower = stronger binding) (broad panel of kinases [13]) [%] | percent of control binding remaining (lower = stronger binding) (broad panel of kinases [14]) [%] | percent of control binding remaining (lower = stronger binding) (broad panel of kinases [15]; RSK2(Kin.Dom.1-N-terminal)) [%] | percent of control binding remaining (lower = stronger binding) (broad panel of kinases [15]; RSK2(Kin.Dom.2-C-terminal)) [%] | percent of control binding remaining (lower = stronger binding) (broad panel of kinases [16]) [%] | percent of control binding remaining (lower = stronger binding) (broad panel of kinases [17]) [%] | percent of control binding remaining (lower = stronger binding) (broad panel of kinases [18]) [%] | percent of control binding remaining (lower = stronger binding) (broad panel of kinases [19]) [%] | percent of control binding remaining (lower = stronger binding) (broad panel of kinases [20]) [%] | percent of control binding remaining (lower = stronger binding) (broad panel of kinases [21]) [%] | other results |
| --- | --- | --- | --- | --- | --- | --- | --- | --- | --- | --- | --- | --- | --- | --- | --- | --- | --- | --- | --- | --- | --- |
| C=CC(=O)N1CC[C@H](Nc2nc(CN3CCOCC3)cc(Nc3ncc(C(=O)Nc4c(C)cccc4C)s3)n2)C1 [Example I-2] | 0.35 | 100 | 100 | 86 | 100 | 83 | 98 | 100 | 93 | 100 | 100 | 96 | 95 | 100 | 84 | 98 | 92 | 83 | 5.8 | 97 | percent of control binding remaining (lower = stronger binding) (broad panel of kinases [7]): 99%; percent of control binding remaining (lower = stronger binding) (broad panel of kinases [9]; ABL1-nonphosphorylated): 0.05%; percent of control binding remaining (lower = stronger binding) (broad panel of kinases [9]; ABL1-phosphorylated): 0%; percent of control binding remaining (lower = stronger binding) (broad panel of kinases [22]): 76%; percent of control binding remaining (lower = stronger binding) (broad panel of kinases [23]): 97%; percent of control binding remaining (lower = stronger binding) (broad panel of kinases [24]): 96%; percent of control binding remaining (lower = stronger binding) (broad panel of kinases [25]): 98% |
| C=CC(=O)N1CC[C@H](Nc2nccc(Nc3ncc(C(=O)Nc4c(C)cccc4C)s3)n2)C1 [Example I-3] | 0.2 | 100 | 100 | 81 | 100 | 100 | 100 | 100 | 94 | 97 | 100 | 84 | 97 | 100 | 100 | 81 | 93 | 49 | 10 | 88 | % change compared to control (broad panel of kinases [7]): 100%; % change compared to control (broad panel of kinases [9]; ABL1-nonphosphorylated): 0.1%; % change compared to control (broad panel of kinases [9]; ABL1-phosphorylated): 0%; percent of control binding remaining (lower = stronger binding) (broad panel of kinases [22]): 89%; percent of control binding remaining (lower = stronger binding) (broad panel of kinases [23]): 100%; percent of control binding remaining (lower = stronger binding) (broad panel of kinases [24]): 100%; percent of control binding remaining (lower = stronger binding) (broad panel of kinases [25]): 99%; % change of MS signal compared to control sample (kinases in BCWM.1 cells [26]): −4.6%; % change of MS signal compared to control sample (kinases in BCWM.1 cells [27]): −25.8%; % change of MS signal compared to control sample (kinases in BCWM.1 cells [28]): −8.6%; % change of MS signal compared to control sample (kinases in BCWM.1 cells [29]): 6.4%; % change of MS signal compared to control sample (kinases in BCWM.1 cells [30]): −9.9%; % change of MS signal compared to control sample (kinases in BCWM.1 cells [31]): −16.8%; % change of MS signal compared to control sample (kinases in BCWM.1 cells [32]): 11.8%; % change of MS signal compared to control sample (kinases in BCWM.1 cells [33]): −3.4% |
| CCC(=O)N1CC[C@H](Nc2nccc(Nc3ncc(C(=O)Nc4c(C)cccc4C)s3)n2)C1 [Example I-9] | – | – | – | – | – | – | – | – | – | – | – | – | – | – | – | – | – | – | – | – | % change of MS signal compared to control sample (kinases in BCWM.1 cells [26]): −4.6%; % change of MS signal compared to control sample (kinases in BCWM.1 cells [27]): 1.8%; % change of MS signal compared to control sample (kinases in BCWM.1 cells [28]): −0.6%; % change of MS signal compared to control sample (kinases in BCWM.1 cells [29]): 15.4%; % change of MS signal compared to control sample (kinases in BCWM.1 cells [30]): −12.6%; % change of MS signal compared to control sample (kinases in BCWM.1 cells [31]): −0.4%; % change of MS signal compared to control sample (kinases in BCWM.1 cells [32]): 16.1%; % change of MS signal compared to control sample (kinases in BCWM.1 cells [33]): −9.6% |
